Earlier results on one compound are cited in patent US11040008B2, “Pharmaceutical compositions of meloxicam” (Slayback Pharma LLC, priority 2018, dated 2021).

Each structure is given as a SMILES string.

For series [1] the following is noted: oral, fasted steady state conditions.

As to `Cc1cnc(NC(=O)C2=C(O)c3ccccc3S(=O)(=O)N2C)s1` [meloxicam, 4-hydroxy-2-methyl-N-(5-methyl-2-thiazolyl)-2H-1,2-benzothiazine-3-carboxamide-1,1-dioxide], the Solubility in water result was “practically insoluble in water”. Also, the “Time of second meloxicam concentration peak post-dose” value in series [1] is “twelve to fourteen”.
